Where two headings read alike, the source gives them in different places. Starred links: 1 amine or outer side, 2 acyl side, 3 side chain; linkers in the order of their positions; H or OH if unused. Positions of bridges follow the written chain, without caps; N, C: chain ends. Non-standard residues stand in square brackets, D forms with d. Residues, ends and D or L forms follow the SMILES beside them. ξ: configuration not given here. *: point of attachment. NMeF = CN[C@@H](Cc1ccccc1)C(=O)O; NMeI = CC[C@H](C)[C@H](NC)C(=O)O; NMeβAla = CN(CCC(=O)[*:2])[*:1]; NMeL = CN[C@@H](CC(C)C)C(=O)O; ξNMeF = CNC(Cc1ccccc1)C(=O)O; NMeV = CN[C@H](C(=O)O)C(C)C; NMeA = CN[C@@H](C)C(=O)O; Piperidide = C1CCN(*)CC1; dNMeA = CN[C@H](C)C(=O)O; Sar = CNCC(=O)O; tBu = CC(C)(C)*
How the values were obtained:
[1] = Metabolic stability in human hepatic microsome; type: in vitro ADME; details: microsomes
[2] = PAMPA (parallel artificial membrane permeability assay); type: in vitro ADME; details: PAMPA
Summary of the method: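 Artificial membrane was 10% (w/v) egg lecithin plus 0.5% (w/v) cholesterol in dodecane on a PVDF filter. A 10 mM DMSO stock was added at 0.5% (v/v) to donor buffer (50 mM MOPSO, pH 6.5, 5.0% glycocholic acid). After 18 h at 37 °C, LC/MS or LC/UV gave donor and acceptor levels for Pe.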

[3] = pH 7.4, human hepatic microsome, NADPH(+), read-out: CL NADPH(+)
[4] = membrane permeation rate (Pe), 50 mM MOPSO buffer pH 6.5 with 5.0% glycocholic acid, 37° C., 18 hours, read-out: iPAMPA Pe

Compound	microsomal CLint at 1 uM ([1]; human, pH 7.4, CL NADPH(+))	Papp at 18 hours, 50 µM ([2]; pH 6.5)	microsomal CLint at 1 uM [1, 3]	Papp at 18 hours, 50 µM [2, 4]
CC[C@H](C)[C@H]1C(=O)N[C@H](C(=O)N2CCCCC2)CC(=O)N(C)[C@H](C)C(=O)N(C)[C@@H](Cc2ccccc2)C(=O)N(C)[C@@H](CC(C)C)C(=O)N[C@@H]([C@@H](C)O)C(=O)N(C)CC(=O)N[C@@H](COC(C)(C)C)C(=O)N(C)[C@@H](CC(C)C)C(=O)N1C [DP-81] ([dNMeA][NMeF][NMeL]T[Sar]S(tBu)[NMeL][NMeI]D-Piperidide; lactam N-9)	38 µL/min/mg	25 ×10⁻⁶ cm/s		
CC[C@H](C)[C@H]1C(=O)N[C@@H](C)C(=O)N[C@H](C(=O)N2CCCCC2)CC(=O)N[C@H](C)C(=O)N[C@@H](Cc2ccccc2)C(=O)N(C)[C@@H](CC(C)C)C(=O)N[C@@H](CC(C)C)C(=O)N[C@@H](Cc2ccccc2)C(=O)N2CCC[C@H]2C(=O)N[C@@H]([C@@H](C)O)C(=O)N[C@@H](COC(C)(C)C)C(=O)N(C)CC(=O)N1C [DP-88] ([dA]F[NMeL]LFPTS(tBu)[Sar][NMeI]AD-Piperidide; lactam N-12)	32 µL/min/mg	13 ×10⁻⁶ cm/s		
CC[C@H](C)[C@H]1C(=O)N[C@@H](CC(C)C)C(=O)NCC(=O)N(C)[C@@H](CC(C)C)C(=O)N[C@@H](Cc2ccccc2)C(=O)N[C@@H]([C@@H](C)O)C(=O)N(C)[C@@H](C)C(=O)N[C@H](C(=O)N2CCCCC2)CC(=O)N(C)[C@@H](C)C(=O)N[C@@H](Cc2ccccc2)C(=O)N(C)[C@@H](C(C)C)C(=O)N[C@@H](CC(C)C)C(=O)N1C [DP-89] ([NMeA]F[NMeV]L[NMeI]LG[NMeL]FT[NMeA]D-Piperidide; lactam N-12)	58 µL/min/mg	23 ×10⁻⁶ cm/s		
CC[C@H](C)[C@H]1C(=O)N(C)[C@@H](C)C(=O)N(C)[C@@H](CC(C)C)C(=O)N[C@@H](COC(C)(C)C)C(=O)N(C)[C@@H](CC(C)C)C(=O)N[C@H](C(=O)N2CCCCC2)CC(=O)N(C)[C@@H](C)C(=O)N(C)[C@@H](Cc2ccccc2)C(=O)N[C@@H](C)C(=O)N(C)[C@@H](CC(C)C)C(=O)N[C@@H]([C@@H](C)O)C(=O)N[C@@H](Cc2ccccc2)C(=O)N1C [DP-90] ([NMeA][NMeF]A[NMeL]TF[NMeI][NMeA][NMeL]S(tBu)[NMeL]D-Piperidide; lactam N-12)			30 µL/min/mg	9.1 ×10⁻⁶ cm/s
CC[C@H](C)[C@H]1C(=O)NCC(=O)N(C)[C@@H](CC(C)C)C(=O)N[C@@H](CC(C)C)C(=O)N[C@H](C(=O)N2CCCCC2)CC(=O)N(C)CCC(=O)N(C)[C@@H](C)C(=O)N[C@@H](CC(C)C)C(=O)N[C@@H]([C@@H](C)O)C(=O)N2CCC[C@H]2C(=O)N[C@@H](Cc2ccccc2)C(=O)N(C)[C@@H](Cc2ccccc2)C(=O)N1C [DP-91] ([NMeβAla][NMeA]LTPF[NMeF][NMeI]G[NMeL]LD-Piperidide; lactam N-12)	58 µL/min/mg	20 ×10⁻⁶ cm/s		
CC[C@H](C)[C@H]1C(=O)N[C@@H](C)C(=O)N(C)[C@@H](CC(C)C)C(=O)N[C@@H](COC(C)(C)C)C(=O)N(C)[C@@H](CC(C)C)C(=O)N[C@H](C(=O)N2CCCCC2)CC(=O)N(C)CCC(=O)N[C@@H](Cc2ccccc2)C(=O)N(C)[C@@H](Cc2ccccc2)C(=O)N(C)[C@@H](CC(C)C)C(=O)N[C@@H]([C@@H](C)O)C(=O)N(C)[C@@H](C)C(=O)N1C [DP-92] ([NMeβAla]F[NMeF][NMeL]T[NMeA][NMeI]A[NMeL]S(tBu)[NMeL]D-Piperidide; lactam N-12)			29 µL/min/mg	26 ×10⁻⁶ cm/s
CC[C@H](C)[C@H]1C(=O)NCC(=O)N(C)[C@@H](Cc2ccccc2)C(=O)N[C@@H]([C@@H](C)O)C(=O)N(C)[C@@H](C)C(=O)N[C@@H](CC(C)C)C(=O)N[C@H](C(=O)N2CCCCC2)CC(=O)N(C)[C@H](C)C(=O)N(C)[C@@H](C)C(=O)N[C@@H](Cc2ccccc2)C(=O)N(C)[C@@H](CC(C)C)C(=O)N[C@@H](C(C)C)C(=O)N1C [DP-93] ([dNMeA][NMeA]F[NMeL]V[NMeI]G[NMeF]T[NMeA]LD-Piperidide; lactam N-12)	17 µL/min/mg	22 ×10⁻⁶ cm/s		
CC[C@H](C)[C@H]1C(=O)N[C@H](C(=O)N2CCCCC2)CC(=O)N(C)[C@H](C)C(=O)N[C@@H](CC(C)C)C(=O)N(C)[C@@H](Cc2ccccc2)C(=O)N(C)[C@@H](CC(C)C)C(=O)NCC(=O)N(C)[C@@H](C(C)C)C(=O)N(C)[C@@H](Cc2ccccc2)C(=O)N(C)[C@@H](C)C(=O)N[C@@H]([C@@H](C)O)C(=O)N(C)[C@@H](C)C(=O)N1C [DP-94] ([dNMeA]L[NMeF][NMeL]G[NMeV][NMeF][NMeA]T[NMeA][NMeI]D-Piperidide; lactam N-12)	17 µL/min/mg	28 ×10⁻⁶ cm/s		
CC(C)C[C@@H]1NC(=O)[C@H](CC(C)C)N(C)C(=O)[C@H](C)NC(=O)[C@H](C(C)C)N(C)C(=O)[C@H](Cc2ccccc2)NC(=O)CN(C)C(=O)[C@H]([C@@H](C)O)NC(=O)[C@H](C)N(C)C(=O)[C@H](CC(C)C)N(C)C(=O)[C@@H](C)NC(=O)C[C@@H](C(=O)N2CCCCC2)NC1=O [DP-95] ([dA][NMeL][NMeA]T[Sar]F[NMeV]A[NMeL]LD-Piperidide; lactam N-11)			19 µL/min/mg	7.3 ×10⁻⁶ cm/s
CC[C@H](C)[C@H]1C(=O)N(C)[C@@H](CC(C)C)C(=O)N[C@H](C(=O)N2CCCCC2)CC(=O)N[C@H](C)C(=O)N(C)[C@@H](CC(C)C)C(=O)N[C@@H](CC(C)C)C(=O)N(C)[C@@H](Cc2ccccc2)C(=O)N[C@@H](COC(C)(C)C)C(=O)N(C)[C@@H](Cc2ccccc2)C(=O)N[C@@H]([C@@H](C)O)C(=O)N(C)[C@@H](C)C(=O)N1C [DP-96] ([dA][NMeL]L[NMeF]S(tBu)[NMeF]T[NMeA][NMeI][NMeL]D-Piperidide; lactam N-11)	51 µL/min/mg	13 ×10⁻⁶ cm/s		
CC[C@H](C)[C@H]1C(=O)N[C@@H]([C@@H](C)O)C(=O)N(C)CC(=O)N[C@H](C(=O)N2CCCCC2)CC(=O)N[C@H](C)C(=O)N[C@@H](CC(C)C)C(=O)N(C)[C@@H](CC(C)C)C(=O)N(C)[C@@H](Cc2ccccc2)C(=O)N[C@@H](C)C(=O)N(C)[C@@H](Cc2ccccc2)C(=O)N(C)[C@@H](CC(C)C)C(=O)N1C [DP-97] ([dA]L[NMeL][NMeF]A[NMeF][NMeL][NMeI]T[Sar]D-Piperidide; lactam N-11)	72 µL/min/mg	27 ×10⁻⁶ cm/s		
CC[C@H](C)[C@H]1C(=O)N(C)[C@@H](C(C)C)C(=O)N(C)CC(=O)N[C@@H]([C@@H](C)O)C(=O)N[C@H](C(=O)N2CCCCC2)CC(=O)N[C@H](C)C(=O)N(C)[C@@H](C)C(=O)N(C)[C@@H](CC(C)C)C(=O)N[C@@H](CC(C)C)C(=O)N(C)[C@@H](Cc2ccccc2)C(=O)N[C@@H](Cc2ccccc2)C(=O)N1C [DP-98] ([dA][NMeA][NMeL]L[NMeF]F[NMeI][NMeV][Sar]TD-Piperidide; lactam N-11)			27 µL/min/mg	26 ×10⁻⁶ cm/s
CC[C@H](C)[C@H]1C(=O)N(C)[C@@H](CC(C)C)C(=O)N(C)[C@@H](Cc2ccccc2)C(=O)N[C@@H]([C@@H](C)O)C(=O)N(C)[C@@H](Cc2ccccc2)C(=O)N(C)[C@@H](CC(C)C)C(=O)N(C)[C@@H](C)C(=O)N[C@H](C(=O)N2CCCCC2)CC(=O)N[C@H](C)C(=O)N[C@@H](C)C(=O)N(C)[C@@H](CC(C)C)C(=O)N1C [DP-99] ([dA]A[NMeL][NMeI][NMeL][NMeF]T[NMeF][NMeL][NMeA]D-Piperidide; lactam N-11)	52 µL/min/mg	56 ×10⁻⁶ cm/s		
CC[C@H](C)[C@H]1C(=O)N(C)[C@@H](CC(C)C)C(=O)N[C@H](C(=O)N2CCCCC2)CC(=O)N(C)[C@@H](C)C(=O)N(C)[C@@H](CC(C)C)C(=O)N[C@@H](CC(C)C)C(=O)N(C)[C@@H](Cc2ccccc2)C(=O)N[C@@H](COC(C)(C)C)C(=O)N(C)[C@@H](Cc2ccccc2)C(=O)N[C@@H]([C@@H](C)O)C(=O)N(C)[C@@H](C)C(=O)N1C [DP-100] ([NMeA][NMeL]L[NMeF]S(tBu)[NMeF]T[NMeA][NMeI][NMeL]D-Piperidide; lactam N-11)	80 µL/min/mg	1.7 ×10⁻⁶ cm/s		
CC(C)C[C@@H]1NC(=O)CN(C)C(=O)[C@H](C(C)C)N(C)C(=O)[C@H](C)NC(=O)[C@H]([C@@H](C)O)NC(=O)[C@H](CC(C)C)N(C)C(=O)[C@H](C)N(C)C(=O)[C@H](CC(C)C)N(C)C(=O)[C@H](Cc2ccccc2)NC(=O)CCN(C)C(=O)C[C@@H](C(=O)N2CCCCC2)NC1=O [DP-102] ([NMeβAla]F[NMeL][NMeA][NMeL]TA[NMeV][Sar]LD-Piperidide; lactam N-11)	5 µL/min/mg	1.8 ×10⁻⁶ cm/s		
CC[C@H](C)[C@H]1C(=O)N[C@@H]([C@@H](C)O)C(=O)N(C)[C@@H](C)C(=O)N(C)[C@@H](CC(C)C)C(=O)N[C@H](C(=O)N2CCCCC2)CC(=O)N(C)CCC(=O)N(C)[C@@H](CC(C)C)C(=O)N[C@@H](CC(C)C)C(=O)N(C)[C@@H](Cc2ccccc2)C(=O)N[C@@H](COC(C)(C)C)C(=O)N(C)C(Cc2ccccc2)C(=O)N1C (stereo partly drawn) [DP-103] ([NMeβAla][NMeL]L[NMeF]S(tBu)[ξNMeF][NMeI]T[NMeA][NMeL]D-Piperidide; lactam N-11)	73 µL/min/mg	19 ×10⁻⁶ cm/s		
CC[C@H](C)[C@H]1C(=O)N(C)[C@@H](Cc2ccccc2)C(=O)N[C@@H](CC(C)C)C(=O)N[C@H](C(=O)N2CCCCC2)CC(=O)N(C)CCC(=O)N(C)[C@@H](CC(C)C)C(=O)N[C@@H]([C@@H](C)O)C(=O)N(C)[C@@H](Cc2ccccc2)C(=O)N(C)[C@@H](CC(C)C)C(=O)N[C@@H](C)C(=O)N(C)[C@@H](CC(C)C)C(=O)N1C [DP-104] ([NMeβAla][NMeL]T[NMeF][NMeL]A[NMeL][NMeI][NMeF]LD-Piperidide; lactam N-11)	29 µL/min/mg	6.7 ×10⁻⁶ cm/s		
